# Experimental data reported in patent US20060211740A1, “Novel compounds” (priority 2003, published 2006).
# Values joined by “and” are separate entries in the source; they are usually repeats but may differ in a detail not shown here. Equal entries are not always repeated. Structures can show the parent of a compound that is named as a salt.
# What was measured:
# Cathepsin D = Cathepsin D (Homo sapiens, UniProt P07339); experiment: Cathepsin D Inhibitory Assay; assay type: biochemical; settings: FAM-[SEVNLDAEFK]-TAMRA substrate, pH 4.5, 1 h at room temperature, fluorescence; read-out: inhibition (CatD), Assay (II)
# Sequence of Cathepsin D (P07339 65-412, species assumed): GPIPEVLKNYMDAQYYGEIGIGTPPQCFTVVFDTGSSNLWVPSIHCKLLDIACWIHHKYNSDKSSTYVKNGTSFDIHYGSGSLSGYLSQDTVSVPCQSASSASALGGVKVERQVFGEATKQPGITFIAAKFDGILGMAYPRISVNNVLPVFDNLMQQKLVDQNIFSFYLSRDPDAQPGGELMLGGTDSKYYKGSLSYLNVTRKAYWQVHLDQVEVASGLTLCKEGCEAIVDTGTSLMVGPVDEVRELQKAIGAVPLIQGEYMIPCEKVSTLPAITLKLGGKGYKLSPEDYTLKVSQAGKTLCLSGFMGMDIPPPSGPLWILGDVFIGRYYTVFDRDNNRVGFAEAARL
# Procedure: (II) Cathepsin D Inhibitory Assay
# (§1) For each compound being assayed, in a 384 well plate, is added:—
# (§2) a) 1 μl of a DMSO solution of the test compound (IC50 curve uses ten 1 in 2 serial dilutions from 500 μM).
# (§3) This is prepared by diluting 2 ml of a 2 mM DMSO solution of the substrate into 400 ml of buffer (100 mM Sodium acetate pH=4.5, 1 l Milli-Q water, 0.06% Triton X-100 (0.5 ml/l), pH adjusted to 4.5 using glacial acetic add).
# c) 10 μl enzyme solution. This is prepared by diluting 1.6 ml of a 200 unit/ml (in 10 mM HCl) enzyme solution into 398.4 ml of buffer (prepared as above).
# (§4) Blank wells (enzyme solution replaced by buffer) are included as controls on each plate. Wells are incubated for 1 h at room temperature and fluorescence read using a Tecan Ultra Fluorimeter/Spectrophotometer (485 nm excitation, 535 nm emission).
# Asp-2 = Asp-2 (Homo sapiens, UniProt P56817); experiment: Asp-2 Inhibitory Assay; assay type: biochemical; settings: FAM-[SEVNLDAEFK]-TAMRA substrate, pH 4.5, 1 h at room temperature, fluorescence; read-out: inhibition (Asp2), Assay (I)
# Sequence of Asp-2 (P56817 46-501): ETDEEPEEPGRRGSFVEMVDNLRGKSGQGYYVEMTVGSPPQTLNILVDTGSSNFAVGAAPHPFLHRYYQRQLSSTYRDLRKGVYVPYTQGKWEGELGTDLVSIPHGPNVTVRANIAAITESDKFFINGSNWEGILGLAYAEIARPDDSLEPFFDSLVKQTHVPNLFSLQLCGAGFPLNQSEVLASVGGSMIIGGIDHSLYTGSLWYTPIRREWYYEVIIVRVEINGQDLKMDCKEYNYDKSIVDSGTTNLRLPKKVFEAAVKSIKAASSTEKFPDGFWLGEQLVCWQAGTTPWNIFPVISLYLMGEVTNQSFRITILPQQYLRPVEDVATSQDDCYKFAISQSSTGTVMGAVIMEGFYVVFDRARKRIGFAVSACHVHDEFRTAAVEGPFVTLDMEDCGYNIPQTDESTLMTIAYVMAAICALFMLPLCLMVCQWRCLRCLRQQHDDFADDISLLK
# Procedure: (I) Asp-2 Inhibitory Assay
# as §1, §2
# as §3, with “acid). Aminomethyl fluorescein (FAM) and tetramethyl rhodamine (TAMRA) are fluorescent molecules which co-operate to emit fluorescence at 535 nm upon cleavage of the […] peptide.” for “add).”
# c) 10 μl enzyme solution. This is prepared by diluting 16 ml of a 500 nM enzyme solution into 384 ml of buffer (prepared as above).
# as §4
IC50 (Cathepsin D),IC50 (Asp-2),Compound
200 to 2500 nM,1 to 100 nM,"C=C(C)c1cc(C(=O)N[C@@H](Cc2ccccc2)[C@H](O)CNCc2cccc(C(F)(F)F)c2)cc(N(c2ccccc2)S(C)(=O)=O)c1 [Example E83, N-[(1S,2R)-Benzyl-hydroxy-3-(3-trifluoromethyl-benzylamino)-propyl]-3-isopropenyl-5-(methanesulfonyl-phenyl-amino)-benzamide]"
200 to 2500 nM and 400 to 1000 nM,1 to 100 nM and 1 to 10 nM,CCSc1cc(C(=O)N[C@@H](Cc2ccccc2)[C@H](O)CNCc2cccc(C(F)(F)F)c2)cc(N(c2ccccc2)S(C)(=O)=O)c1 [Example E60]
200 to 2500 nM and 400 to 1000 nM,1 to 100 nM and 1 to 10 nM,"CS(=O)(=O)N(c1ccccc1)c1cc(C(=O)N[C@@H](Cc2ccccc2)[C@H](O)CNCc2cccc(OC(F)(F)F)c2)cc(N2CCCC2=O)c1 [Example E55, formate salt]"
200 to 2500 nM and 400 to 1000 nM,1 to 100 nM and 1 to 10 nM,"CS(=O)(=O)N(c1cccc(C#N)c1)c1cc(C(=O)N[C@@H](Cc2ccccc2)[C@H](O)CNCc2cccc(C(F)(F)F)c2)cc(N2CCCC2=O)c1 [Example E77, formate salt]"
200 to 2500 nM,1 to 100 nM,"CS(=O)(=O)N(c1ccccc1)c1cccc(C(=O)N[C@@H](Cc2ccccc2)[C@H](O)CNCc2cccc(C(F)(F)F)c2)c1F [Example E56, formate salt]"

# More lines, now with the values behind:
Compound,IC50 (Cathepsin D),IC50 (Asp-2)
"C#Cc1cc(C(=O)N[C@@H](Cc2ccccc2)[C@H](O)CNCc2cccc(C(F)(F)F)c2)cc(N(c2ccccc2)S(C)(=O)=O)c1 [Example E46, N-[(1S,2R)-1-Benzyl-2-hydroxy-3-(3-trifluoromethyl-benzylamino)-propyl]-ethynyl-(methanesulfonyl-phenyl-amino)-benzamide]",200 to 2500 nM,1 to 100 nM
C[C@H](NC[C@@H](O)[C@H](Cc1ccccc1)NC(=O)c1cc(N2CCCC2=O)cc(N(c2ccccc2)S(C)(=O)=O)c1)C(=O)NC1CCCCC1 [Example E41],200 to 2500 nM and 400 to 1000 nM,1 to 100 nM and 1 to 10 nM
"CS(=O)(=O)N(c1cccc(C#N)c1)c1cccc(C(=O)N[C@@H](Cc2ccccc2)[C@H](O)CNCc2cccc(C(F)(F)F)c2)c1 [Example E17, N-[(1S,2R)-1-Benzyl-2-hydroxy-3-(3-trifluoromethyl-benzylamino)-propyl]-[(3-cyano-phenyl)-methanesulfonyl-amino]-benzamide]",200 to 2500 nM,1 to 100 nM
